Measurements as given in patent US10858423B2, “Composition for the treatment of IGF-1R expressing cancer” (PIERRE FABRE MEDICAMENT, priority 2015, dated 2020).
Like-named read-outs stand apart in the source and are kept apart here. Where a SMILES comes first, the peptide text is derived from it. [ ]: non-standard residue; d: D form. The star is where a group is joined. Dolaproine = CO[C@@H]([C@@H]1CCCN1)[C@@H](C)C(=O)O; Dil = CC[C@H](C)[C@H](NC)[C@@H](CC(=O)O)OC; X2 = CNc1ccc(CCN(C)[C@H](C(=O)*)C(C)C)cc1; X3 = CC(C)C(C(=O)*)N(C)CCc1ccc(C(=O)O)cc1; X1 = CC(C)[C@@H](C(=O)*)N(C)Cc1cccc(N)c1

What was measured:
MDA-MB-231 cells = test: ATPlite antiproliferative assay, MDA-MB-231; type: cell-based; details: Homo sapiens
Description: (§1) A549 (Non Small Cell Lung Cancer—ATCC CCL-185) and MDA-MB-231 (breast adenocarcinoma—ATCC HTB-26) cells were cultured in Minimum Essential Medium Eagle (MEM) with 5% fetal calf serum (FCS) and Dulbecco's modified Eagle Medium (DMEM) with 10% FCS respectively. MCF7 (breast ductal carcinoma—ATCC HTB-22) and SN-12C (kidney carcinoma—ATCC) cells were maintained in RPMI1640 medium (without phenol red for MCF7 cells) containing 10% FCS. All the media were supplemented with fungizone (1.25 μg/mL) and penicillin-streptomycin (100 U/100 μg/mL). Cells were cultured under standard conditions in an incubator at 37° C., 5% CO2 and 95% atmospheric humidity.
(§2) Selected drugs were investigated for their antiproliferative activity using an ATPlite proliferation assay (Perkin Elmer, Villebon sur Yvette, France) on a comprehensive panel of 4 cell lines. Cells were seeded in 96 well plates (10^3 cells/well for A549, 2.10^3 for MCF7, MDA-MB-231 and SN12C) at day 0 at a concentration to ensure cells remained in logarithmic cell growth phase throughout the 72 h drug treatment period. After a 24 h incubation period, all the cells were treated with serial dilutions of the tested compounds (11 μL of a 10× solution in 1% DMSO—6 wells/condition). To avoid adherence of the compounds onto the tips, tips were changed between two consecutive dilutions. Cells were then placed in 37° C., 5% CO2 incubator. On day 4, cell viability was evaluated by dosing the ATP released by viable cells. The number of viable cells was analyzed in comparison with the number of solvent treated cells. The EC50 values were determined with curve fitting analysis (non linear regression model with a sigmoidal dose response, variable hill slope coefficient), performed with the algorithm provided by the GraphPad Software (GraphPad Software Inc., CA, USA).

A549 cells = test: ATPlite antiproliferative assay, A549; type: cell-based; details: Homo sapiens
Description: as §1, §2

MCF7 cells = test: ATPlite antiproliferative assay, MCF7; type: cell-based; details: Homo sapiens
Description: as §1
(§3) Selected drugs were investigated for their antiproliferative activity using an ATPlite proliferation assay (Perkin Elmer, Villebon sur Yvette, France) on a comprehensive panel of 4 cell lines. […] On day 4, cell viability was evaluated by dosing the ATP released by viable cells. The number of viable cells was analyzed in comparison with the number of solvent treated cells. The EC50 values were determined with curve fitting analysis (non linear regression model with a sigmoidal dose response, variable hill slope coefficient), performed with the algorithm provided by the GraphPad Software (GraphPad Software Inc., CA, USA).

SN-12C cells = test: ATPlite antiproliferative assay, SN12C; type: cell-based; details: Homo sapiens
Description: as §1, §3

lysosome functions = test: inhibition of antibody degradation by lysosome inhibitor; type: cell-based; details: cells with 10 μg/ml Ab, 2 h at 37° C.
Description: In order to confirm that second IGF-1R antibodies Ab reached the lysosome were they are degraded, cells were treated or not with bafilomycine A1, a potent inhibitor of lysosome functions. Cells were then incubated with 10 μg/ml of Ab to be tested at 4° C., washed and incubated for 2 h at 37° C. The internalized Ab was detected after cell permeabilisation using a secondary anti-mouse IgG-Alexa 488 Ab.

IGF-1R = IGF-1R (Homo sapiens, UniProt P08069); details: background statement; cited from earlier work
[1] = MDA-MB-231, comparative examples table, read-out: EC50 (M) MDA-MB-231
[2] = A549, comparative examples table, read-out: EC50 (M) A549

Compound	EC50 (MDA-MB-231 cells; [1])	EC50 (MDA-MB-231 cells; MDA-MB-231, read-out: EC50)	EC50 (A549 cells; [2])	other results
CC[C@H](C)[C@@H]([C@@H](CC(=O)N1CCC[C@H]1[C@H](OC)[C@@H](C)C(=O)N[C@@H](Cc1ccccc1)C(=O)OC)OC)N(C)C(=O)[C@@H](NC(=O)[C@H](C(C)C)N(C)CCc1ccc(NC)cc1)C(C)C [Compound 12, methyl (S)-2-((2R,3R)-3-((S)-1-((3R,4S,5S)-4-((S)—N,3-dimethyl-2-((S)-3-methyl-2-(methyl(4-(methylamino)phenethyl)amino)butanamido)butanamido)-3-methoxy-5-methylheptanoyl)pyrrolidin-2-yl)-3-methoxy-2-methylpropanamido)-3-phenylpropanoate, trifluoroacetic Acid] (X2-V[Dil][Dolaproine]F-OMe)	5.8e-10 M	5.8e-10 M	1.48e-10 M	
CC[C@H](C)[C@@H]([C@@H](CC(=O)N1CCC[C@H]1[C@H](OC)[C@@H](C)C(=O)N[C@@H](Cc1ccccc1)C(=O)O)OC)N(C)C(=O)[C@@H](NC(=O)[C@H](C(C)C)N(C)CCc1ccc(NC)cc1)C(C)C [Compound 13, (S)-2-((2R,3R)-3-((S)-1-((3R,4S,5S)-4-((S)—N,3-dimethyl-2-((S)-3-methyl-2-(methyl(4-(methylamino)phenethyl)amino)butanamido)butanamido)-3-methoxy-5-methylheptanoyl)pyrrolidin-2-yl)-3-methoxy-2-methylpropanamido)-3-phenylpropanoic acid, trifluoroacetic Acid] (X2-V[Dil][Dolaproine]F-OH)	7.95e-08 M	7.95e-08 M	2.71e-08 M	
CC[C@H](C)[C@@H]([C@@H](CC(=O)N1CCC[C@H]1[C@H](OC)[C@@H](C)C(=O)N[C@@H](Cc1ccccc1)C(=O)OC)OC)N(C)C(=O)[C@@H](NC(=O)[C@H](C(C)C)N(C)Cc1cccc(N)c1)C(C)C [Compound 15, methyl (S)-2-((2R,3R)-3-((S)-1-((3R,4S,5S)-4-((S)-2-((S)-2-((3-aminobenzyl) (methyl)amino)-3-methylbutanamido)-N,3-dimethylbutanamido)-3-methoxy-5-methylheptanoyl)pyrrolidin-2-yl)-3-methoxy-2-methylpropanamido)-3-phenylpropanoate, trifluoroacetic Acid] (X1-V[Dil][Dolaproine]F-OMe)	1.7e-10 M	1.7e-10 M	1.45e-10 M	EC50 (MCF7 cells; 72 h drug treatment, read-out: EC50 (M) MCF-7): 7.15e-10 M; EC50 (MCF7 cells; MCF-7, text bound, read-out: EC50): < 1e-07 M; EC50 (MDA-MB-231 cells; MDA-MB-231, 72 h, 72 h drug treatment, read-out: EC50 (M) MDA-MB-231): 1.7e-10 M; EC50 (MDA-MB-231 cells; MDA-MB-231, MDA-MB-231, text bound, read-out: EC50): < 1e-07 M; EC50 (A549 cells; A549, 72 h drug treatment, read-out: EC50 (M) A549): 1.45e-10 M; EC50 (A549 cells; A549, text bound, read-out: EC50): < 1e-07 M; EC50 (SN-12C cells; 72 h drug treatment, read-out: EC50 (M) SN12C): 2.18e-10 M; EC50 (SN-12C cells; text bound, read-out: EC50): < 1e-07 M
CO/C1=C\C(C)=C\[C@@H](C)[C@@H](O)[C@@H](C)C/C(C)=C/C=C/[C@H](OC)[C@@H]([C@@H](C)[C@@H](O)[C@H](C)[C@@]2(O)C[C@@H](O)[C@H](C)[C@@H](C(C)C)O2)OC1=O [bafilomycine A1]				effect on degradation of intracellular Ab (lysosome functions): prevented the degradation of intracellular Ab
CC[C@H](C)[C@@H]([C@@H](CC(=O)N1CCC[C@H]1[C@H](OC)[C@@H](C)C(=O)N[C@@H](Cc1ccccc1)C(=O)OC)OC)N(C)C(=O)[C@@H](NC(=O)C(C(C)C)N(C)CCc1ccc(C(=O)O)cc1)C(C)C (some centres unmarked) [compound 1, reference compound] (X3-V[Dil][Dolaproine]F-OMe)	2.29e-09 M		3.76e-09 M	
CC[C@H](C)[C@@H]([C@@H](CC(=O)N1CCC[C@H]1[C@H](OC)[C@@H](C)C(=O)N[C@@H](Cc1ccccc1)C(=O)O)OC)N(C)C(=O)[C@@H](NC(=O)C(C(C)C)N(C)CCc1ccc(C(=O)O)cc1)C(C)C (some centres unmarked) [compound 2, reference compound] (X3-V[Dil][Dolaproine]F-OH)	9.75e-07 M		4.03e-07 M	
IGF2: insulin-like growth factor 2, ligand of IGF-1R				Kd (IGF-1R): ~1 nM
